In test [1] the test system is SHR (spontaneously hypertensive rats). Description: Antihypertensive action in SHR. The note with it: conscious male SHR, hydrochlorides, 24 hours. In kind it is in vivo. The procedure:
Male SHR (spontaneously hypertensive rats), 23 to 30 weeks old, were anesthesized with sodium pentobarbital 50 mg/kg intraperitoneal administration), and a polyethylene cannula was inserted through the left femoral artery into the abdominal aorta. The other end of the cannula was led out of the body and fixed at the back of the neck. One week after the operation, when the animal had recovered from the stress of the surgery, the other end of the cannula was connected to a blood pressure measuring device, which was constructed according to the directions of Laffan et al. [Laffan, P.J., Peterson A., Hitch S,W. and Jeunelot C., Cardiovascular Res. 6. 319-324 (1972)], but with slight modifications. The blood pressure and heart rate of the conscious and […] SHR were measured. After the blood pressure and the heart rate had stabilised for more than one hour, the test drug was administered by […]. After administration of the test sample, the blood pressure and the heart rate were measured every 15 minutes over a period of 24 hours. The maximum decrease in blood pressure and the half-time of the blood pressure lowering activity thus determined are shown in Table 6.
All of the test compounds were employed as the hydrochlorides.

The target in test [2] is T1, calcium channel (Cavia porcellus, UniProt O35505).
T1 construct: The taenia coli excised from a male guinea pig; from tissue; host or cells: guinea pig taenia coli (excised smooth muscle strip)
Description: Calcium channel blocking action (calcium-induced contraction of excised taenia coli). The note with it: 0.5 h, test compound 10^-8 g/ml, 30 minutes incubation, guinea pig taenia coli, hydrochlorides (Example 34: fumarate). The method, then:
The taenia coli excised from a male guinea pig weighing from 250 to 300 g was cut into a length of 6 to 7 mm and suspended in an organ bath filled with Tylord's solution (sodium chloride 97 mM, potassium chloride 40 mM, sodium hydrogen carbonate 11.9 mM, disodium hydrogen phosphate 0.4 mM, glucose 5.5 mM; pH 7.1). The bath solution contained no calcium ions and was aerated with a mixture of 95% oxygen and 5% carbon dioxide by volume. To this solution were added 10 and 30 mM solutions of calcium chloride at 30 minute intervals to obtain a final concentration of 0.4 mM. The tension which developed 1n the taenia coli was measured by an isometric transducer. The organ bath was then washed twice or more with Tylord's solution containing no calcium ions after which it was allowed to equilibrate for 30 minutes. After the muscle had stabilised, test compound dissolved in physiological saline was added to the bath to a final concentration of 10^-8 g/ml, and the bath was incubated for 30 minutes. 30 and 100 mM solutions of calcium chloride were again added to the bath, and the developed tension was measured. From the magnitude of the calcium-induced contraction before and after the test drug had been added the inhibitory rate was calculated using the following formula: [formula] where: Co=contraction induced by calcium ion before a test drug was added: and
Ct=contraction induced by calcium ion after the test drug had been added.
In addition to the compounds of the invention, we also carried out the same test with the following compounds of the prior art: (±)-diltiazem, […], (±)-8-chlorodiltiazem (8-Cl-diltiazem). (±)-8-methoxydiltiazem (8-MeO-diltiazem) and (±)-8-benzyloxydiltiazem (8-BzO-diltiazem).
In the Table, the compounds of the invention are identified by the number of the one of the foregoing Examples in which the compound was prepared. The prior art compounds are identified by the abbreviated generic names shown above in parentheses.
All of the compounds except for that of Example 34 were employed as the hydrochlorides; that of Example 34 was employed as the fumarate.

[3] abbreviates: Rattus norvegicus, po, Dose 10 mg/kg, read-out: Maximum hypotension (%).
[4] abbreviates: Rattus norvegicus, po, Dose 30 mg/kg, read-out: Maximum hypotension (%).

The values below come from US5002942A, “1,5-benzothiazepine derivatives, their preparation and their use in the treatment of cardiovascular disorders” (Sankyo Company, Limited, priority 1988, dated 1991).

T1 sequence (O35505 whole entry): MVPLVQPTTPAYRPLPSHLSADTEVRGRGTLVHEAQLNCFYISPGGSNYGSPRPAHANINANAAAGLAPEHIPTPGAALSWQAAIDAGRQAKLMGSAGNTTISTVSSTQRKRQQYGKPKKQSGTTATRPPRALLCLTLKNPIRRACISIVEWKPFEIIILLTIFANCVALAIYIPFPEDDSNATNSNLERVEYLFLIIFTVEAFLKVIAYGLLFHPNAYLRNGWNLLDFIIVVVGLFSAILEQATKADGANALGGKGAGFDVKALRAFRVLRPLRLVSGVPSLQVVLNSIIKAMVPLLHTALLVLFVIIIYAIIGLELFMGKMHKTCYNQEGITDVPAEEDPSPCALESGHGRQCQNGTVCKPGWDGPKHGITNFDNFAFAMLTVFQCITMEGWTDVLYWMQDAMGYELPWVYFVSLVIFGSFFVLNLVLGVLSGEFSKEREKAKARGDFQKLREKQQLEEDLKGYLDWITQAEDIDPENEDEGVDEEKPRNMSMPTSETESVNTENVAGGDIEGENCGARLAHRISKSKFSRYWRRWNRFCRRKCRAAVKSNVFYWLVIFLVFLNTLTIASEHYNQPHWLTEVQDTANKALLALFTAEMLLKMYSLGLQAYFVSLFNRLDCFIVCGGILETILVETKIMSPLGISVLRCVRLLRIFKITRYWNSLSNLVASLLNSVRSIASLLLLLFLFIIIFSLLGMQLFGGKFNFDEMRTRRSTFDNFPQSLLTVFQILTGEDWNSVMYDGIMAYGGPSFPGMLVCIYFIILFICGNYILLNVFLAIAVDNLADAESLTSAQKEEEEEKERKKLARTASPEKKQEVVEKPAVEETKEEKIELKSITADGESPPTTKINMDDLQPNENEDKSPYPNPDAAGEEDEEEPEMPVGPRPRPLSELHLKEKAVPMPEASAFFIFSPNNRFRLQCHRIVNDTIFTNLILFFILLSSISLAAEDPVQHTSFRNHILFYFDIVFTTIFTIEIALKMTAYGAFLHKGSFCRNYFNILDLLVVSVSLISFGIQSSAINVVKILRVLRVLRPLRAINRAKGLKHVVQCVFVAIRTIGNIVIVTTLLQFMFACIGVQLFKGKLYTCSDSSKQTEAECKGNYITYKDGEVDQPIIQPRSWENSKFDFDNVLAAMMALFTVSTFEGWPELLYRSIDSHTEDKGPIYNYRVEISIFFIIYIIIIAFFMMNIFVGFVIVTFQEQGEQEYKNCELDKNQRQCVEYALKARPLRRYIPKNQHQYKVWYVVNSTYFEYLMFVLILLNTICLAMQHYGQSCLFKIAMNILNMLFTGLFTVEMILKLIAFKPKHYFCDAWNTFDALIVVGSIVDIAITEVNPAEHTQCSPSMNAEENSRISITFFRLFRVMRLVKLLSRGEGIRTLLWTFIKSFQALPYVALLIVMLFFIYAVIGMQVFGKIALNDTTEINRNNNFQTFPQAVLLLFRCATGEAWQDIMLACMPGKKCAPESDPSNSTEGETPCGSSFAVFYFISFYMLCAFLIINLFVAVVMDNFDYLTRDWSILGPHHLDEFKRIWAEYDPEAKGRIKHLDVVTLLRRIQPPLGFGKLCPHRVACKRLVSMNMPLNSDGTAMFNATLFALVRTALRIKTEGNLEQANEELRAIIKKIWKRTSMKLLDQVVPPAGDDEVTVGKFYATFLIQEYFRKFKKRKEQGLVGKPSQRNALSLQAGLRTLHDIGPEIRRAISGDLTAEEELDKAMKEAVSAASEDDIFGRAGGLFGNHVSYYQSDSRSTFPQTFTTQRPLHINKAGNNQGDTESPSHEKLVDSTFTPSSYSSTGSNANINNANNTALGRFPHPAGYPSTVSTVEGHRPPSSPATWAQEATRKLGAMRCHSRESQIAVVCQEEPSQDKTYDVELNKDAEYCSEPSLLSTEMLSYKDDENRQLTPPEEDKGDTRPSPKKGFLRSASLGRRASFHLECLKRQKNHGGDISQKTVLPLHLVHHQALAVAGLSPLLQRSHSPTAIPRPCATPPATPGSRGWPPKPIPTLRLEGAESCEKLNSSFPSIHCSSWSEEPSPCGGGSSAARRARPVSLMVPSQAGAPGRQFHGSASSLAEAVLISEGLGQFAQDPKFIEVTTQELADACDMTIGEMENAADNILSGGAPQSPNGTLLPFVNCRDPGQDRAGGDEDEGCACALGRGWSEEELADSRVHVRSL

What is called inhibition is how much of the control response was suppressed. For `COc1ccc([C@@H]2Sc3cc(Oc4ccc(F)cc4)ccc3N(CCN(C)C)C(=O)[C@@H]2OC(C)=O)cc1` [Example 14, (2S, 3S)-3-Acetoxy-5-(2-dimethylaminoethyl)-8-(4-fluoro-phenoxy)-2,3-dihydro-2-(4-methoxyphenyl)-1,5-benzothiazpin-4(5H)-one], in test [1] (Dose 10 mg/kg), the “Half-time of hypotension action” value came to 12.7 h. The change in vivo at 10 mg/kg in test [1] (setting [3]) was -37%. The inhibition at 0.01 µg/mL in test [2] turned out to be 94%.

Turning to `COc1ccc([C@@H]2Sc3cc(Cc4ccccc4)ccc3N(CCN(C)C)C(=O)[C@@H]2OC(C)=O)cc1` [Example 18], in test [1] (Dose 10 mg/kg), the “Half-time of hypotension action” value is 13.8 h. Further, the change in vivo at 10 mg/kg in test [1] (setting [3]) was -32%. In addition, the inhibition at 0.01 µg/mL in test [2] amounted to 77%.

On to `CCN(CC)CCN1C(=O)[C@H](OC(C)=O)[C@H](c2ccc(OC)cc2)Sc2cc(Oc3ccccc3)ccc21` [Example 36, (2S, 3S)-3-Acetoxy-5-(2-diethylaminoethyl)-2,3-dihydro-2-(4-methoxyphenyl)-8-phenoxy-1,5-benzothiazepin-4(5H)-one], for which, in test [1] (Dose 10 mg/kg), the “Half-time of hypotension action” value worked out at 8.2 h. Also, the change in vivo at 10 mg/kg in test [1] (setting [3]) was -29%. In addition, in test [2], the inhibition at 0.01 µg/mL came out at 80%.

Regarding `COc1ccc([C@@H]2Sc3cc(Cl)ccc3N(CCN(C)C)C(=O)[C@@H]2OC(C)=O)cc1` (relative stereo) [(±)-8-Cl-diltiazem, cis-3-acetoxy-8-chloro-2,3-dihydro-5-(2-dimethylaminoethyl)-2-(4-methoxyphenyl)-1,5-benzothiazepin-4(5E,uns/H/ )-one, reference compound], in test [1] (Dose 30 mg/kg), the “Half-time of hypotension action” value came out at 6.1 h. For the same molecule, the change in vivo at 30 mg/kg in test [1] (setting [4]) is -32%. Moreover, the inhibition at 0.01 µg/mL in test [2] worked out at 56%.

In the case of `COc1ccc([C@@H]2Sc3cc(OC)ccc3N(CCN(C)C)C(=O)[C@@H]2OC(C)=O)cc1` (relative stereo) [(±)-8-MeO-diltiazem, cis-3-acetoxy-8-methoxy-2,3-dihydro-5-(2-dimethylaminoethyl)-2-(4-methoxyphenyl)-1,5-benzotbiazepin-4(5E,uns/H/ )-one, reference compound], the “Half-time of hypotension action” value in test [1] (Dose 30 mg/kg) amounted to 5.8 h. Also, the change in vivo at 30 mg/kg in test [1] (setting [4]) is -35%. For the same molecule, the inhibition at 0.01 µg/mL in test [2] amounted to 67%.

Take `CC(=O)O[C@H]1C(=O)N(CCN(C)C)c2ccc(Oc3ccccc3)cc2S[C@H]1c1ccc2c(c1)OCO2` (relative stereo) [Example 6, (±)-Cis-3-acetoxy-5-(2-dimethylaminoethyl)-2,3-dihydro-2-(3,4-methylenedioxyphenyl)-8-phenoxy-1,5-benzothiazepin-(5H)-one]: the inhibition at 0.01 µg/mL in test [2] worked out at 53%.

For `COc1ccc([C@@H]2Sc3cc(Oc4ccccc4)ccc3N(CCN(C)C)C(=O)[C@@H]2OC(C)=O)cc1F` (racemic) [Example 4, (±)-Cis-3-acetoxy-5-(2-dimethylaminoethyl)-2-(3-fluoro-4-methoxyphenyl)-2,3-dihydro-8-phenoxy-1,5-benzothiazepin-4(5H)-one], the “Half-time of hypotension action” value in test [1] (Dose 30 mg/kg) turned out to be 16.0 h. In addition, the change in vivo at 30 mg/kg in test [1] (setting [4]) was -36%. The inhibition at 0.01 µg/mL in test [2] turned out to be 84%.

Regarding `COc1ccc([C@@H]2Sc3cc(Oc4ccccc4)ccc3N(CCN(C)C)C(=O)[C@@H]2OC(C)=O)cc1` [Example 12, (2S, 3S)-3-Acetoxy-5-(2-dimethylaminoethyl)-2,3-dihydro-2-(4-methoxyphenyl1}-8-phenoxy-1,5-benzothiazepin-4(5H)-one], the “Half-time of hypotension action” value in test [1] (Dose 5 mg/kg) was 11.8 h. The change in vivo at 5 mg/kg in test [1] (Rattus norvegicus, po, Dose 5 mg/kg, read-out: Maximum hypotension (%)) is -38%. For the same molecule, in test [2], the inhibition at 0.01 µg/mL is 86%.

Consider `COc1ccc(Oc2ccc3c(c2)S[C@@H](c2ccc(OC)cc2)[C@@H](OC(C)=O)C(=O)N3CCN(C)C)cc1` (relative stereo) [Example 28, (±)-cis-3-Acetoxy-5-(2-dimethylaminoethyl)-2,3-dihydro-8-(4-methoxyphenoxy)-2-(4-methoxyphenyl)-1,5-benzothlazepin-4-(5H)-one], for which the inhibition at 0.01 µg/mL in test [2] was 59%.

Consider `COc1ccc([C@@H]2Sc3cc(OCc4ccccc4)ccc3N(CCN(C)C)C(=O)[C@@H]2OC(C)=O)cc1` (racemic) [(±)-8-BzO-diltiazem, cis-3-acetoxy-8-benzyloxy-2,3-dihydro-5-(2-dimethylaminoethyl)-2-(4-methoxyphenyl)-1,5-benzothiazepin-4(5H)-one, reference compound], for which the “Half-time of hypotension action” value in test [1] (Dose 30 mg/kg) is 7.7 h. Besides, in test [1] (setting [4]), the change in vivo at 30 mg/kg was -19%. In addition, in test [2], the inhibition at 0.01 µg/mL was determined as 55%.

In the case of `COc1ccc([C@@H]2Sc3ccccc3N(CCN(C)C)C(=O)[C@@H]2OC(C)=O)cc1` (relative stereo) [(±)-diltiazem, reference compound], the “Half-time of hypotension action” value in test [1] (Dose 30 mg/kg) came to 3.8 h. Besides, the change in vivo at 30 mg/kg in test [1] (setting [4]) was -17%. Further, the inhibition at 0.01 µg/mL in test [2] turned out to be 11%.

For `COc1ccc([C@@H]2Sc3cc(Cc4cccs4)ccc3N(CCN(C)C)C(=O)[C@@H]2OC(C)=O)cc1` [Example 20, (2S, 3S)-3-Acetoxy-5-(2-dimethylaminoethyl)-2,3-dihydro-2-(4-Methoxyphenyl)-8-(2-thienylmethyl)-1,5-benzothiazepin-4(5H)-one], in test [1] (Dose 10 mg/kg), the “Half-time of hypotension action” value came to 8.5 h. For the same molecule, the change in vivo at 10 mg/kg in test [1] (setting [3]) was -24%. In addition, the inhibition at 0.01 µg/mL in test [2] is 57%.

Regarding `COc1ccc([C@@H]2Sc3cc(Oc4ccc(F)cc4)ccc3N(CCN(C)C)C(=O)[C@@H]2OC(C)=O)cc1F` [Example 32, (2S, 3S)-3-Acetoxy-5-(2-dimethylaminoethyl)-2-(3-fluoro-4-methoxyphenyl)-8-(4-fluorophenoxy)-2,3-dihydro-1,5-benzothiazepin-4(5H)-one], the “Half-time of hypotension action” value in test [1] (Dose 10 mg/kg) came to 13.8 h. In test [1] (setting [3]), the change in vivo at 10 mg/kg is -41%. Also, in test [2], the inhibition at 0.01 µg/mL is 100%.

Consider `COc1ccc([C@@H]2Sc3cc(Oc4ccc5c(c4)OCO5)ccc3N(CCN(C)C)C(=O)[C@@H]2OC(C)=O)cc1` [Example 34, (2S, 3S)-3-Acetoxy-5-(2-dimethylaminoethyl)-2,3-dihydro-2-(4-methoxyphenyl)-8-(3,4-methylenedioxyphenoxy)-1,5-benzothiazepin-4(5H)-one], for which the inhibition at 0.01 µg/mL in test [2] is 88%.

With `COc1ccc([C@@H]2Sc3cc(Oc4ccc(Cl)cc4)ccc3N(CCN(C)C)C(=O)[C@@H]2OC(C)=O)cc1` (relative stereo) [Example 30, (±)-cis-3-Acetoxy-8-(4-chlorophenoxy)-2,3-dihydro-5-(2-dimethylaminoethyl)-2-(4-methoxyphenyl)-1,5-benzothiazepin-4-(5H)-one], the inhibition at 0.01 µg/mL in test [2] amounted to 56%.

`COc1ccc([C@@H]2Sc3cc(Oc4ccc(F)cc4)ccc3N(CCN(C)C)C(=O)[C@@H]2OC(C)=O)cc1F` (racemic) [Example 24, (±)-cis-3-Acetoxy-5-(2-dimethylaminoethyl)-2-(3-fluoro-4-methoxyphenyl)-8-(4-fluorophenoxy)-2,3-dihydro-1,5-benzothiazepin-4(5H)-one]: in test [2], the inhibition at 0.01 µg/mL was determined as 93%.

With `COc1ccc([C@@H]2Sc3cc(Oc4ccc(F)cc4)ccc3N(CCN(C)C)C(=O)[C@@H]2OC(C)=O)cc1` (racemic) [Example 22, (±)-cis-3-Acetoxy-5-(2-dimethylaminoethyl)-8-(4-fluoro-phenoxy)-2,3-dihydro-2-(4-methoxyphenyl)-1,5-benzothiazepin-4(5H)-one], the inhibition at 0.01 µg/mL in test [2] came to 52%.
